ChEMBL document CHEMBL5360581, “Discovery of a novel dual functional phenylpyrazole-styryl hybrid that induces apoptotic and autophagic cell death in bladder cancer cells” (Eur J Med Chem, 2023)
pIC50: −log10 of the molar value. Active and inactive are the calls of the source.

Tests used:
[1] = test system: EJ-28; test: Induction of ROS generation in human EJ-28 cells at 1.25 to 10 uM incubated for 48 hrs by DCFDA staining based flow cytometry analysis; assay type: functional, cell-based; details: dose 1.25-10 µM
[2] = test system: A549; test: Antiproliferative activity against human A549 cells assessed as reduction in cell viability at 20 uM measured for 72 hrs by MTT assay; assay type: functional, cell-based
[3] = test system: EJ-28; test: Cytotoxicity against human EJ-28 cells assessed inhibition of cell growth incubated for 72 hrs by MTT assay; assay type: functional, cell-based; details: EJ-28, 72 h
[4] = test system: MCF7; test: Cytotoxicity against human MCF7 cells assessed inhibition of cell growth incubated for 72 hrs by MTT assay; assay type: functional, cell-based; details: MCF7, 72 h
[5] = Selectivity index, ratio of IC50 for cytotoxicity against human NHDF cells to IC50 for cytotoxicity against human EJ-28 cells
[6] = Selectivity index, ratio of IC50 for cytotoxicity against human NHDF cells to IC50 for cytotoxicity against human HT-1080 cells
[7] = Selectivity index, ratio of IC50 for cytotoxicity against human NHDF cells to IC50 for cytotoxicity against human MCF7 cells; assay type: toxicity, cell-based; details: NHDF cells and MCF7 cells, read-out: Ratio IC50
[8] = test system: EJ-28; test: Induction of morphological changes in human EJ-28 cells assessed as cell rounding at 7.5 uM incubated for 24 to 72 hrs by microscopic analysis; assay type: functional, cell-based; details: time 24-72 hrs
[9] = test system: SV-HUC-1; test: Induction of morphological changes in human SV-HUC-1 cells at 7.5 uM incubated for 24 to 72 hrs by microscopic analysis; assay type: functional, cell-based; details: time 24-72 hrs
[10] = Cytotoxicity against human SV-HUC-1 cells assessed as reduction in cell viability at 7.5 uM incubated for 72 hrs by MTT assay; assay type: toxicity, cell-based; details: sv-huc-1, 72 h
[11] = test system: EJ-28; test: Inhibition of colony formation in human EJ-28 cells at 2.5 to 10 uM incubated for 10 days by crystal violet staining based assay; assay type: functional, cell-based; details: dose 2.5-10 µM, time 10.0 day
[12] = test system: EJ-28; test: Inhibition of colony formation in human EJ-28 cells at 1.25 uM incubated for 10 days by crystal violet staining based assay; assay type: functional, cell-based; details: time 10.0 day
[13] = test system: EJ-28; test: Induction of cell cycle arrest in human EJ-28 cells assessed as accumulation of cells at S phase at 1.25 uM incubated for 48 hrs by propidium iodide staining based flow cytometry (reference value: 30%); assay type: functional
[14] = test system: EJ-28; test: Induction of cell cycle arrest in human EJ-28 cells assessed as accumulation of cells at S phase at 5 uM incubated for 48 hrs by propidium iodide staining based flow cytometry (reference value: 30%); assay type: functional
[15] = test system: EJ-28; test: Induction of cell cycle arrest in human EJ-28 cells assessed as accumulation of cells at G2/M phase at 2.5 uM incubated for 48 hrs by propidium iodide staining based flow cytometry (reference value: 20%); assay type: functional
[16] = test system: EJ-28; test: Induction of cell cycle arrest in human EJ-28 cells assessed as accumulation of cells at G2/M phase at 5 uM incubated for 48 hrs by propidium iodide staining based flow cytometry (reference value: 20%); assay type: functional
[17] = test system: EJ-28; test: Induction of apoptosis in human EJ-28 cells assessed as downregulation of procaspase-7 expression incubated for 24 to 72 hrs by Western blotting analysis; assay type: functional, cell-based; details: time 24-72 hrs
[18] = test system: EJ-28; test: Induction of apoptosis in human EJ-28 cells assessed as upregulation of PARP expression incubated for 24 hrs by Western blotting analysis; assay type: functional, cell-based
[19] = test system: EJ-28; test: Induction of apoptosis in human EJ-28 cells assessed as upregulation of Bcl-2 expression incubated for 24 hrs by Western blotting analysis; assay type: functional, cell-based
[20] = test system: EJ-28; test: Induction of apoptosis in human EJ-28 cells assessed as upregulation of Mcl-1 expression incubated for 24 hrs by Western blotting analysis; assay type: functional, cell-based
[21] = test system: EJ-28; test: Induction of apoptosis in human EJ-28 cells assessed as upregulation of phosphorylated Bcl-2 level incubated for 24 to 72 hrs by Western blotting analysis; assay type: functional, cell-based; details: time 24-72 hrs
[22] = test system: EJ-28; test: Induction of apoptosis in human EJ-28 cells assessed as upregulation of cleaved caspases-9 expression by Western blotting analysis; assay type: functional, cell-based; details: time 24-72 hrs
[23] = test system: EJ-28; test: Induction of apoptosis in human EJ-28 cells assessed as upregulation of Bad expression incubated for 48 hrs by Western blotting analysis; assay type: functional, cell-based
[24] = test system: EJ-28; test: Induction of apoptosis in human EJ-28 cells assessed as upregulation of Bak expression incubated for 24 hrs by Western blotting analysis; assay type: functional, cell-based
[25] = test system: EJ-28; test: Induction of autophagy in human EJ-28 cells assessed as increase in green fluorescence intensity incubated for 24 hrs by flow cytometry analysis; assay type: functional, cell-based; details: dose 5-12.5 µM
[26] = test system: EJ-28; test: Induction of autophagy in human EJ-28 cells assessed as increase in green fluorescence intensity at 5 to 12.5 uM incubated for 24 hrs by flow cytometry analysis; assay type: functional, cell-based; details: dose 5-12.5 µM
[27] = test system: EJ-28; test: Induction of autophagy in human EJ-28 cells assessed as increase in green fluorescence intensity at 5 to 12.5 uM incubated for 36 to 48 hrs by flow cytometry analysis; assay type: functional, cell-based; details: dose 5-12.5 µM, time 36-48 hrs
[28] = test system: EJ-28; test: Induction of autophagy in human EJ-28 cells assessed as upregulation of LC3B-2 expression at 5 to 12.5 uM incubated for 24 to 72 hrs by Western blot analysis; assay type: functional, cell-based; details: dose 5-12.5 µM, time 24-72 hrs
[29] = test system: EJ-28; test: Induction of autophagy in human EJ-28 cells assessed as upregulation of Atg5 expression at 5 to 12.5 uM incubated for 24 to 72 hrs by Western blot analysis; assay type: functional, cell-based; details: dose 5-12.5 µM, time 24-72 hrs
[30] = test system: EJ-28; test: Induction of autophagy in human EJ-28 cells assessed as upregulation of Atg5-Atg12 expression at 5 to 12.5 uM incubated for 24 to 72 hrs by Western blot analysis; assay type: functional, cell-based; details: dose 5-12.5 µM, time 24-72 hrs
[31] = test system: EJ-28; test: Induction of autophagy in human EJ-28 cells assessed as upregulation of Atg16L1 expression at 5 to 12.5 uM incubated for 24 to 72 hrs by Western blot analysis; assay type: functional, cell-based; details: dose 5-12.5 µM, time 24-72 hrs
[32] = test system: EJ-28; test: Induction of autophagy in human EJ-28 cells assessed as upregulation of Atg3 expression at 5 to 12.5 uM incubated for 24 to 72 hrs by Western blot analysis; assay type: functional, cell-based; details: dose 5-12.5 µM, time 24-72 hrs
[33] = test system: EJ-28; test: Induction of autophagy in human EJ-28 cells assessed as upregulation of Atg7 expression at 5 to 12.5 uM incubated for 24 to 72 hrs by Western blot analysis; assay type: functional, cell-based; details: dose 5-12.5 µM, time 24-72 hrs
[34] = test system: EJ-28; test: Induction of autophagy in human EJ-28 cells assessed as downregulation of mTOR expression at 5 to 12.5 uM incubated for 24 hrs by Western blot analysis; assay type: functional, cell-based; details: dose 5-12.5 µM
[35] = test system: EJ-28; test: Induction of autophagy in human EJ-28 cells assessed as upregulation of AKT expression at 5 to 12.5 uM incubated for 24 hrs by Western blot analysis; assay type: functional, cell-based; details: dose 5-12.5 µM
[36] = test system: EJ-28; test: Induction of autophagy in human EJ-28 cells assessed as upregulation of AKT expression at 5 to 12.5 uM incubated for 48 to 72 hrs by Western blot analysis; assay type: functional, cell-based; details: dose 5-12.5 µM, time 48-72 hrs
[37] = Toxicity in Zebrafish embryo assessed as lack of pigmentation at 12.5 uM administered for 4 hrs post fertilization and measured after 3 days post fertilization; set-up: species or system Danio rerio; details: in vivo, 72 h, time 3 day
[38] = Toxicity in Zebrafish embryo assessed as mild bradycardia at 12.5 to 25 uM administered for 4 hrs post fertilization and measured after 3 days post fertilization; set-up: species or system Danio rerio; details: in vivo, 72 h, dose 12.5-25 µM, time 3 day

O=[N+]([O-])c1cccc(/C=C/c2cc(-c3cc(Cl)ccc3O)n(-c3ccccc3)n2)c1
5.06: pIC50 [4]
Non-Toxic: Activity [10] | Activity [37] | Activity [38]
19%: Activity [16]
27%: Activity [13]
21%: Activity [14]
2.6: Ratio IC50 [5] | Ratio IC50 [6] | selectivity ratio [7]
inactive: Activity [1] | Activity [9] | inhibition [12] | Activity [27] | Activity [31] | Activity [32] | Activity [33]
active: Activity [2] | Activity [8] | inhibition [11] | Activity [17] | Activity [18] | Activity [19] | Activity [20] | Activity [21] | Activity [22] Dose-Dependent Effect | Activity [23] | Activity [24] | Activity [25] Dose-Dependent Effect | Activity [26] | Activity [28] | Activity [29] | Activity [30] | Activity [34] | Activity [35] | Activity [36]
15%: Activity [15]
5.55: pIC50 [3]
